Reference: patent publication EP0093484A2, “Antibacterial monic acid derivatives” (BEECHAM GROUP PLC, priority 1982, dated 1983)
In brackets after ≈: the same amount, converted by molar mass.

How the values were obtained:
[1] = test system: M. suipneumoniae JF 435; test: Anti-mycoplasmal activity, MIC in Friis broth agarose; assay type: cell-based; details: Mesomycoplasma hyopneumoniae, JF435, 144 h, Friis broth solidified with 0.9% agarose, 6 days incubation at 37°C, read-out: MIC
[2] = test system: M. suipneumoniae HK(2); test: as above; assay type: cell-based; details: Mesomycoplasma hyopneumoniae, 144 h, Friis broth solidified with 0.9% agarose, 6 days incubation at 37°C, read-out: MIC
[3] = test system: M. suipneumoniae Str. 11; test: as above; assay type: cell-based; details: Mesomycoplasma hyopneumoniae, 144 h, Friis broth solidified with 0.9% agarose, 6 days incubation at 37°C, read-out: MIC
[4] = test system: M. suipneumoniae MS16; test: as above; assay type: cell-based; details: Mesomycoplasma hyopneumoniae, 144 h, Friis broth solidified with 0.9% agarose, 6 days incubation at 37°C, read-out: MIC
[5] = test system: M. suipneumoniae UCD 1; test: as above; assay type: cell-based; details: Mesomycoplasma hyopneumoniae, UCD1, 144 h, Friis broth solidified with 0.9% agarose, 6 days incubation at 37°C, read-out: MIC
[6] = test system: M. suipneumoniae TAM 6N; test: as above; assay type: cell-based; details: Mesomycoplasma hyopneumoniae, TAM6N, 144 h, Friis broth solidified with 0.9% agarose, 6 days incubation at 37°C, read-out: MIC
[7] = test system: M. hyorhinis ATCC 23234; test: as above; assay type: cell-based; details: Mesomycoplasma hyorhinis, ATCC23234, 144 h, Friis broth solidified with 0.9% agarose, 6 days incubation at 37°C, read-out: MIC
[8] = test system: M. hyosynoviae ATCC 25591; test: as above; assay type: cell-based; details: 144 h, Friis broth solidified with 0.9% agarose, 6 days incubation at 37°C, read-out: MIC
[9] = test system: M. bovis NCTC 10131; test: microbe, parasite or virus in culture; assay type: cell-based; details: NCTC10131, 144 h
[10] = test system: M. dispar NCTC 10125; test: Anti-mycoplasmal activity, MIC in Friis broth agarose; assay type: cell-based; details: 144 h, Friis broth solidified with 0.9% agarose, 6 days incubation at 37°C, read-out: MIC
[11] = test system: M. gallisepticum S6; test: as above; assay type: cell-based; details: Mycoplasmoides gallisepticum, 144 h, Friis broth solidified with 0.9% agarose, 6 days incubation at 37°C, read-out: MIC
[12] = test system: M. pneumoniae ATCC 15492; test: as above; assay type: cell-based; details: Mycoplasmoides pneumoniae, ATCC15492, 144 h, Friis broth solidified with 0.9% agarose, 6 days incubation at 37°C, read-out: MIC
[13] = test system: E. coli ESS; test: Human bacteria, MIC by serial dilution in nutrient agar; assay type: cell-based; details: Escherichia coli, nutrient agar with 5% chocolated horse blood, 18 hours at 37°C, read-out: MIC
[14] = test system: P. mirabilis 889; test: as above; assay type: cell-based; details: Proteus mirabilis, nutrient agar with 5% chocolated horse blood, 18 hours at 37°C, read-out: MIC
[15] = test system: K. aerogenes A; test: as above; assay type: cell-based; details: Klebsiella aerogenes, nutrient agar with 5% chocolated horse blood, 18 hours at 37°C, read-out: MIC
[16] = test system: Ps. aeruginosa 10662; test: as above; assay type: cell-based; details: Pseudomonas aeruginosa, nutrient agar with 5% chocolated horse blood, 18 hours at 37°C, read-out: MIC
[17] = test system: Pasteurella multocida 1633; test: as above; assay type: cell-based; details: nutrient agar with 5% chocolated horse blood, 18 hours at 37°C, read-out: MIC
[18] = test system: Haemophilus influenzae Q1; test: as above; assay type: cell-based; details: nutrient agar with 5% chocolated horse blood, 18 hours at 37°C, read-out: MIC
[19] = test system: Haemophilus influenzae Wy21; test: as above; assay type: cell-based; details: nutrient agar with 5% chocolated horse blood, 18 hours at 37°C, read-out: MIC
[20] = test system: Neisseria catarrhalis 1502; test: as above; assay type: cell-based; details: nutrient agar with 5% chocolated horse blood, 18 hours at 37°C, read-out: MIC
[21] = test system: Bacillus subtilis 6633; test: as above; assay type: cell-based; details: nutrient agar with 5% chocolated horse blood, 18 hours at 37°C, read-out: MIC
[22] = test system: Corynebacterium xerosis 9755; test: as above; assay type: cell-based; details: nutrient agar with 5% chocolated horse blood, 18 hours at 37°C, read-out: MIC
[23] = test system: Sarcina lutea 8340; test: as above; assay type: cell-based; details: Micrococcus luteus, nutrient agar with 5% chocolated horse blood, 18 hours at 37°C, read-out: MIC
[24] = test system: Staph. aureus Russell; test: as above; assay type: cell-based; details: Staphylococcus aureus, nutrient agar with 5% chocolated horse blood, 18 hours at 37°C, read-out: MIC
[25] = test system: Strep. faecalis I; test: as above; assay type: cell-based; details: Enterococcus faecalis, nutrient agar with 5% chocolated horse blood, 18 hours at 37°C, read-out: MIC
[26] = test system: Strep. agalactiae 2788-B; test: as above; assay type: cell-based; details: Streptococcus agalactiae, nutrient agar with 5% chocolated horse blood, 18 hours at 37°C, read-out: MIC
[27] = test system: Strep. pneumoniae CN33; test: as above; assay type: cell-based; details: Streptococcus pneumoniae, nutrient agar with 5% chocolated horse blood, 18 hours at 37°C, read-out: MIC
[28] = test system: E. coli NCTC 10418; test: Veterinary bacteria, MIC by two fold serial dilution in agar; details: Escherichia coli, NCTC10418, 18 h
Protocol: (§1) The activity of the compounds of the Examples against various organisms important in veterinary infections was determined using two fold serial dilutions in Diagnostic Sensitivity Test Agar inoculated with 10^4 organisms.

[29] = test system: E. coli E1; test: as above; details: Escherichia coli, E1, 18 h
Protocol: as §1

[30] = test system: S. dublin S7; test: as above; details: Salmonella enterica, S7, 18 h
Protocol: as §1

[31] = test system: Bord. bronchiseptica B08; test: as above; details: Bordetella bronchiseptica, B08, 18 h
Protocol: as §1

[32] = test system: Past. multocida PA1; test: as above; details: Pasteurella multocida, PA1, 18 h
Protocol: as §1

[33] = test system: Past. multocida PA2; test: as above; details: Pasteurella multocida, PA2, 18 h
Protocol: as §1

[34] = test system: Erysipelothrix rhusiopathiae NCTC 8163; test: as above; details: Erysipelothrix rhusiopathiae, NCTC8163, 18 h
Protocol: as §1

[35] = test system: Corynebacterium pyogenes CY1; test: as above; details: CY1, 18 h
Protocol: as §1

[36] = test system: Staph. aureus B4 (pen. resistant); test: as above; details: Staphylococcus aureus, 18 h
Protocol: as §1

[37] = test system: Staph. aureus 152 (pen. sens.); test: as above; details: Staphylococcus aureus, 18 h
Protocol: as §1

[38] = test system: Strep. uberis SPU1; test: as above; details: Streptococcus uberis, SPU1, 18 h
Protocol: as §1

[39] = test system: Strep. dysgalactiae SPD1; test: as above; details: Streptococcus dysgalactiae, SPD1, 18 h
Protocol: as §1

[40] = test system: Strep. pyogenes R80/421-A; test: Human bacteria, MIC by serial dilution in nutrient agar; assay type: cell-based; details: Streptococcus pyogenes, nutrient agar with 5% chocolated horse blood, 18 hours at 37°C, read-out: MIC
[41] = test system: Strep. spp. 64/848-C; test: as above; assay type: cell-based; details: nutrient agar with 5% chocolated horse blood, 18 hours at 37°C, read-out: MIC

SMILES	MIC [1]	MIC [2]	MIC [3]	MIC [4]	MIC [5]	MIC [6]	MIC [7]	MIC [8]	MIC [9]	MIC [10]	MIC [11]	MIC [12]	MIC [13]	MIC [14]	MIC [15]	MIC [16]	MIC [17]	MIC [19]	MIC [20]	MIC [21]	also measured
CC(=CC(=O)OCc1cccc(S(C)(=O)=O)c1)CC1OCC(CC2OC2C(C)C(C)O)C(O)C1O (stereo not drawn) [Example 7, m-Methylsulfonylbenzyl monate A]	1 µg/mL (≈ 1.95 µM)	1 µg/mL (≈ 1.95 µM)	0.5 µg/mL (≈ 0.975 µM)	0.5 µg/mL (≈ 0.975 µM)	1 µg/mL (≈ 1.95 µM)	1 µg/mL (≈ 1.95 µM)	0.5 µg/mL (≈ 0.975 µM)	0.25 µg/mL (≈ 0.488 µM)	0.025 µg/mL (≈ 0.0488 µM)	0.25 µg/mL (≈ 0.488 µM)	5 µg/mL (≈ 9.75 µM)	2.5 µg/mL (≈ 4.88 µM)	2.5 µg/mL (≈ 4.88 µM)	> 100 µg/mL	> 100 µg/mL	> 100 µg/mL	2.5 µg/mL (≈ 4.88 µM)	0.5 µg/mL (≈ 0.975 µM)	1 µg/mL (≈ 1.95 µM)	2.5 µg/mL (≈ 4.88 µM)	MIC [18]: 0.5 µg/mL (≈ 0.975 µM); MIC [22]: > 100 µg/mL; MIC [23]: > 100 µg/mL; MIC [24]: 5 µg/mL (≈ 9.75 µM); MIC [25]: > 100 µg/mL; MIC [26]: 5 µg/mL (≈ 9.75 µM); MIC [27]: 1 µg/mL (≈ 1.95 µM); MIC [28]: > 80 µg/mL; MIC [29]: > 80 µg/mL; MIC [30]: > 80 µg/mL; MIC [31]: > 80 µg/mL; MIC [32]: 2.5 µg/mL (≈ 4.88 µM); MIC [33]: 1.25 µg/mL (≈ 2.44 µM); MIC [34]: > 80 µg/mL; MIC [35]: > 80 µg/mL; MIC [36]: 2.5 µg/mL (≈ 4.88 µM); MIC [37]: 2.5 µg/mL (≈ 4.88 µM); MIC [38]: 0.625 µg/mL (≈ 1.22 µM); MIC [39]: 1.25 µg/mL (≈ 2.44 µM)
CC(=CC(=O)OC(C)c1ccc(S(C)(=O)=O)cc1)CC1OCC(CC2OC2C(C)C(C)O)C(O)C1O (stereo not drawn) [Example 9, 1-(p-Methylsulfonylphenyl)ethyl monate A]	1 µg/mL (≈ 1.9 µM)	1 µg/mL (≈ 1.9 µM)	0.5 µg/mL (≈ 0.949 µM)	0.5 µg/mL (≈ 0.949 µM)	1 µg/mL (≈ 1.9 µM)	1 µg/mL (≈ 1.9 µM)	0.5 µg/mL (≈ 0.949 µM)	0.25 µg/mL (≈ 0.475 µM)	< 0.01 µg/mL	0.05 µg/mL (≈ 0.0949 µM)	10 µg/mL (≈ 19 µM)	0.5 µg/mL (≈ 0.949 µM)	4 µg/mL (≈ 7.6 µM)	> 128 µg/mL	> 128 µg/mL	> 128 µg/mL	8 µg/mL (≈ 15.2 µM)	0.5 µg/mL (≈ 0.949 µM)	2 µg/mL (≈ 3.8 µM)	1 µg/mL (≈ 1.9 µM)	MIC [22]: > 128 µg/mL; MIC [24]: 16 µg/mL (≈ 30.4 µM); MIC [25]: > 128 µg/mL; MIC [40]: 1 µg/mL (≈ 1.9 µM); MIC [26]: 8 µg/mL (≈ 15.2 µM); MIC [41]: 4 µg/mL (≈ 7.6 µM); MIC [27]: 4 µg/mL (≈ 7.6 µM); MIC [28]: > 80 µg/mL; MIC [29]: > 80 µg/mL; MIC [30]: > 80 µg/mL; MIC [31]: > 80 µg/mL; MIC [32]: 5 µg/mL (≈ 9.49 µM); MIC [33]: 2.5 µg/mL (≈ 4.75 µM); MIC [34]: 80 µg/mL (≈ 152 µM); MIC [35]: > 80 µg/mL; MIC [36]: 5 µg/mL (≈ 9.49 µM); MIC [37]: 5 µg/mL (≈ 9.49 µM); MIC [38]: 0.312 µg/mL (≈ 0.592 µM); MIC [39]: 0.625 µg/mL (≈ 1.19 µM)
